These results are taken from patent US7268125B2 (Azevan Pharmaceuticals, Inc., priority 2001, dated 2007).

The IC50 is the concentration that inhibits the measured activity by half.

In this assay the target is T1, human V1a receptor (Homo sapiens, UniProt P37288).
T1 construct: host or cells: CHO cells
T1 sequence (P37288 whole entry): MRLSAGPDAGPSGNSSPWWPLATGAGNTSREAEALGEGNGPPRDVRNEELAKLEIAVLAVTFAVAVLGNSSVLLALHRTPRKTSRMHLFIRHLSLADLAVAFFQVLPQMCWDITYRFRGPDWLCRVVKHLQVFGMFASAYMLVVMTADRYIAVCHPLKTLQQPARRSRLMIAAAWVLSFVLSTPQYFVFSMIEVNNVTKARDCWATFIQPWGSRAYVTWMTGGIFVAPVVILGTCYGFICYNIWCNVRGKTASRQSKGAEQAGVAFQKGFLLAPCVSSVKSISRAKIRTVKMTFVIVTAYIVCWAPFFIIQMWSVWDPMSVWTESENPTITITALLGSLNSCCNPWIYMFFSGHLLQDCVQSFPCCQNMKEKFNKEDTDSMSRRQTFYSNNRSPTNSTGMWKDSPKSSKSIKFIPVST
Put plainly: Human vasopressin V1a receptor binding assay. As to conditions: hV1a cell line (CHO), competition with 1 nM 3H-AVP, 45 minutes at 37° C.; read-out: V1a BINDING AFFINITY (IC50 (nM)). On the procedure:
Human Vasopression V1a Receptor Binding Assay.
A cell line expressing the human V1a receptor in CHO cells (henceforth referred to as the hV1a cell line) was obtained from Dr. Michael Brownstein, NIMH, Bethesda, Md., USA. The hV1a cDNA sequence is described by Thibonnier et al., Journal of Biological Chemistry, 269, 3304-3310 (1994), and the expression method was the same as described by Morel et al. (1992). The hV1a cell line was grown in alpha-MEM with 10% fetal bovine serum and 250 ug/ml G418 (Gibco, Grand Island, N.Y., USA). For competitive binding assay, hV1a cells were plated into 6-well culture plate at 1:10 dilution from a confluency flask, and maintained in culture for at least two days. Culture medium was then removed, cells were washed with 2 ml binding buffer (25 mM Hepes, 0.25% BSA, 1×DMEM, PH=7.0). To each well, 990 μl binding buffer containing 1 nM 3H-AVP was added, and followed by 10 μl series diluted Example compounds dissolved in DMSO. […] 100 nM cold AVP (Sigma) was used to assess non-specific binding. Cells were incubated for 45 minutes at 37° C., assay mixture was removed and each well was washed three times with PBS (pH=7.4). 1 ml 2% SDS was added per well and plates were let sit for 30 minutes. The whole content in a well was transferred to a scintillation vial. Each well was rinsed with 0.5 ml PBS which was then added to the corresponding vial. Scintillation fluid (Ecoscint, National Diagnostics, Atlanta, Ga.) was then added at 3 ml per vial. Samples were counted in a liquid scintillation counter (Beckman LS3801). IC50 values were calculated by Prism Curve fitting software.
All of the alkanedioic esters and amides exemplified in the foregoing examples were tested in this assay described of Example 201.
As for `CCCCN1CCN(C(=O)CCC(C(=O)NCc2cccc(C(F)(F)F)c2)N2C(=O)C(N3C(=O)OCC3c3ccccc3)C2C=Cc2ccccc2)CC1` (single isomer, unassigned) [Example 103], the IC50 stood at 0.81 nM.
Consider `O=C(NCc1cccc(C(F)(F)F)c1)[C@@H](CCC(=O)N1CCC(N2CCCCC2)CC1)N1C(=O)[C@@H](N2C(=O)OC[C@@H]2c2ccccc2)[C@H]1/C=C/c1ccccc1` [Example 135], for which the IC50 is about 50 nM.
Then `O=C(NCc1cccc(C(F)(F)F)c1)[C@H](CCC(=O)N1CCN(CCC2CCCCC2)CC1)N1C(=O)[C@@H](N2C(=O)OC[C@@H]2c2ccccc2)[C@H]1/C=C/c1ccccc1` [Example 111], with 1.31 nM.
The result for `O=C(NCc1cccc(C(F)(F)F)c1)[C@H](CC(=O)N1CCN(C2CCCC2)CC1)N1C(=O)[C@@H](N2C(=O)OC[C@@H]2c2ccccc2)[C@H]1/C=C/c1ccccc1` [Example 77] reads under 100 nM.
Then `O=C(NCc1cccc(C(F)(F)F)c1)[C@@H](CCC(=O)N1CCN(C2CCCCC2)CC1)N1C(=O)[C@@H](N2C(=O)OC[C@@H]2c2ccccc2)[C@H]1/C=C/c1ccccc1` [Example 139], with 9.5 nM; and `O=C(CC[C@@H](C(=O)NCc1cccc(C(F)(F)F)c1)N1C(=O)[C@@H](N2C(=O)OC[C@@H]2c2ccccc2)[C@H]1/C=C/c1ccccc1)NCCN1CCCCC1` [Example 87], with 15 nM.
Consider `CN(C)CCNC(=O)CC[C@@H](C(=O)NCc1cccc(C(F)(F)F)c1)N1C(=O)[C@@H](N2C(=O)OC[C@@H]2c2ccccc2)[C@H]1/C=C/c1ccccc1` [Example 100], for which the IC50 is under 100 nM.
For the compound `O=C(CC[C@@H](C(=O)NCc1cccc(C(F)(F)F)c1)N1C(=O)[C@@H](N2C(=O)OC[C@@H]2c2ccccc2)[C@H]1/C=C/c1ccccc1)NCc1cccnc1` [Example 109], the IC50 was about 100 nM.
The result for `O=C(C[C@@H](C(=O)NCc1cccc(C(F)(F)F)c1)N1C(=O)[C@@H](N2C(=O)OC[C@@H]2c2ccccc2)[C@H]1/C=C/c1ccccc1)N[C@H]1CCN(Cc2ccccc2)C1` [Example 85] reads 5.87 nM; that for `O=C(NCc1cccc(C(F)(F)F)c1)[C@H](CCC(=O)N1CCN(CC(=O)N2CCCC2)CC1)N1C(=O)[C@@H](N2C(=O)OC[C@@H]2c2ccccc2)[C@H]1/C=C/c1ccccc1` [Example 101], about 100 nM; that for `O=C(NCc1cccc(C(F)(F)F)c1)[C@H](CC(=O)N1CCN(CCN2CCCC2)CC1)N1C(=O)[C@@H](N2C(=O)OC[C@@H]2c2ccccc2)[C@H]1/C=C/c1ccccc1` [Example 78], under 100 nM.
Consider `O=C(NCc1cccc(C(F)(F)F)c1)[C@H](CCC(=O)N1CCN(CCN2CCOCC2)CC1)N1C(=O)[C@@H](N2C(=O)OC[C@@H]2c2ccccc2)[C@H]1/C=C/c1ccccc1` [Example 112], for which the IC50 was 1.34 nM.
Regarding `O=C(NCc1cccc(C(F)(F)F)c1)[C@H](CC(=O)N1CCN(C2CCCCC2)CC1)N1C(=O)[C@@H](N2C(=O)OC[C@@H]2c2ccccc2)[C@H]1/C=C/c1ccccc1` [Example 66], the IC50 is about 50 nM.
The result for `CC(C)N1CCN(C(=O)CCC(C(=O)NCc2cccc(C(F)(F)F)c2)N2C(=O)C(N3C(=O)OCC3c3ccccc3)C2C=Cc2ccccc2)CC1` (single isomer, unassigned) [Example 104] reads 1.85 nM.
Consider `O=C(NCc1cccc(C(F)(F)F)c1)[C@H](CCC(=O)N1CCN(CC2CCCCC2)CC1)N1C(=O)[C@@H](N2C(=O)OC[C@@H]2c2ccccc2)[C@H]1/C=C/c1ccccc1` [Example 120], for which the IC50 was determined as 0.75 nM.
The result for `O=C(NCc1cccc(C(F)(F)F)c1)[C@H](CCC(=O)N1CCN(Cc2ccc3c(c2)OCO3)CC1)N1C(=O)[C@@H](N2C(=O)OC[C@@H]2c2ccccc2)[C@H]1/C=C/c1ccccc1` [Example 96] reads 4.35 nM.
Then `CCN(CC)CCN1CCN(C(=O)C[C@@H](C(=O)NCc2cccc(C(F)(F)F)c2)N2C(=O)[C@@H](N3C(=O)OC[C@@H]3c3ccccc3)[C@H]2/C=C/c2ccccc2)CC1` [Example 81], with under 100 nM; and `CC(C)(C)OC(=O)CC[C@@H](C(=O)NCc1cccc(C(F)(F)F)c1)N1C(=O)[C@@H](N2C(=O)OC[C@@H]2c2ccccc2)[C@H]1/C=C/c1ccccc1` [Example 20, 2(S)-(tert-Butoxycarbonylethyl)-2-[3(S)-(4(S)-phenyloxazolidin-2-on-3-yl)-4(R)-(2-styryl)azetidin-2-on-1-yl]acetic acid N-(3-trifluoromethylbenzyl)amide], with 35 nM.
Then `CN(C)CCCNC(=O)CC[C@@H](C(=O)NCc1cccc(C(F)(F)F)c1)N1C(=O)[C@@H](N2C(=O)OC[C@@H]2c2ccccc2)[C@H]1/C=C/c1ccccc1` [Example 106], with about 100 nM; and `O=C(NCc1cccc(C(F)(F)F)c1)C(C(=O)N1CCC(N2CCCCC2)CC1)N1C(=O)[C@@H](N2C(=O)OC[C@@H]2c2ccccc2)[C@H]1/C=C/c1ccccc1` (mixture of isomers) [Example 37], with 5.5 nM.
For `O=C(C[C@@H](C(=O)NCc1cccc(C(F)(F)F)c1)N1C(=O)[C@@H](N2C(=O)OC[C@@H]2c2ccccc2)[C@H]1/C=C/c1ccccc1)NC1CCN(Cc2ccccc2)CC1` [Example 63], the IC50 was 1.84 nM.
With `CC(C)(C)OC(=O)C(C(=O)NCc1cccc(C(F)(F)F)c1)N1C(=O)[C@@H](N2C(=O)OC[C@@H]2c2ccccc2)[C@H]1/C=C/c1ccccc1` (mixture of isomers) [Example 18, 2(RS)-(tert-Butoxycarbonyl)-2-[3(S)-(4(S)-phenyloxazolidin-2-on-3-yl)-4(R)-(2-styryl)azetidin-2-on-1-yl]acetic acid N-(3-trifluoromethylbenzyl)amide], the IC50 worked out at 35 nM.
The result for `O=C(NCc1cccc(C(F)(F)F)c1)[C@H](CC(=O)N1CCCN(Cc2ccccc2)CC1)N1C(=O)[C@@H](N2C(=O)OC[C@@H]2c2ccccc2)[C@H]1/C=C/c1ccccc1` [Example 82] reads under 50 nM; that for `O=C(NCc1cccc(C(F)(F)F)c1)[C@@H](CCC(=O)N1CCN(CCc2ccccc2)CC1)N1C(=O)[C@@H](N2C(=O)OC[C@@H]2c2ccccc2)[C@H]1/C=C/c1ccccc1` [Example 136], 11 nM.
The result for `CCCCN1CCN(C(=O)C(C(=O)NCc2cccc(C(F)(F)F)c2)N2C(=O)[C@@H](N3C(=O)OC[C@@H]3c3ccccc3)[C@H]2/C=C/c2ccccc2)CC1` (mixture of isomers) [Example 40] reads 11 nM.
In the case of `O=C(NCc1cccc(C(F)(F)F)c1)C(C(=O)NC1CCN(Cc2ccccc2)CC1)N1C(=O)[C@@H](N2C(=O)OC[C@@H]2c2ccccc2)[C@H]1/C=C/c1ccccc1` (mixture of isomers) [Example 39], the IC50 amounted to 23 nM.
`O=C(CC[C@@H](C(=O)NCc1cccc(C(F)(F)F)c1)N1C(=O)[C@@H](N2C(=O)OC[C@@H]2c2ccccc2)[C@H]1/C=C/c1ccccc1)NC1CCN(Cc2ccccc2)CC1` [Example 107]: the half-maximal inhibitory concentration (IC50) is under 50 nM.
Then `CC(C)N1CCN(C(=O)CC[C@H](C(=O)NCc2cccc(C(F)(F)F)c2)N2C(=O)[C@@H](N3C(=O)OC[C@@H]3c3ccccc3)[C@H]2/C=C/c2ccccc2)CC1` [Example 138], with 21 nM.
In the case of `O=C(NCc1cccc(C(F)(F)F)c1)C(C(=O)N1CCN(C2CCCCC2)CC1)N1C(=O)[C@@H](N2C(=O)OC[C@@H]2c2ccccc2)[C@H]1/C=C/c1ccccc1` (mixture of isomers) [Example 42], the half-maximal inhibitory concentration (IC50) was under 20 nM.
